Source: the supplement of paper PMC10307832

Legend:
Assay in all cases: relative viability (nuclei count vs DMSO), 5 days (fraction); higher = more cells survive
Bortezomib + Luminespib = compound: CC(C)C[C@H](NC(=O)[C@H](Cc1ccccc1)NC(=O)c1cnccn1)B(O)O [Bortezomib] + CCNC(=O)c1noc(-c2cc(C(C)C)c(O)cc2O)c1-c1ccc(CN2CCOCC2)cc1 [Luminespib] (partner 0.01 µM)
Procedure, shortened: (§1)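 Nuclei were stained with Hoechst during a one-step fixation (final 0.05% Triton X-100, 1% formaldehyde, 1 ug/ml Hoechst) carried out 5 days after dosing, then counted on 4× images. The cells, lung cancer lines in 1536-well plates, had been dosed by pin tool the day after seeding with one drug alone or a fixed anchor-drug dose plus five library-drug doses (not always all listed) in √10 steps. Relative viability is the nuclei count in treated wells divided by that in vehicle wells, and each value is the median of duplicate plates.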

Bortezomib + Tozasertib = compound: CC(C)C[C@H](NC(=O)[C@H](Cc1ccccc1)NC(=O)c1cnccn1)B(O)O [Bortezomib] + Cc1cc(Nc2cc(N3CCN(C)CC3)nc(Sc3ccc(NC(=O)C4CC4)cc3)n2)n[nH]1 [Tozasertib] (partner 0.1 µM)
Procedure, shortened: as §1

[1] = compound: CC1=CC(=NN1)NC2=CC(=NC(=N2)/C=C/C3=CC=CC=C3)N4CCN(CC4)C + O=C(c1cc(Cc2n[nH]c(=O)c3ccccc23)ccc1F)N1CCN(C(=O)C2CC2)CC1 [Olaparib] (partner 8 µM)
Procedure, shortened: as §1

Obatoclax + OSI-027 = compound: COC1=CC(c2cc3ccccc3[nH]2)=N/C1=C\c1[nH]c(C)cc1C [Obatoclax] + COc1cccc2cc(-c3nc([C@H]4CC[C@H](C(=O)O)CC4)n4ncnc(N)c34)[nH]c12 [OSI-027] (partner 0.5 µM)
Procedure, shortened: as §1

Cell Line | relative viability (Bortezomib + Luminespib; first compound 0.0002 µM) | relative viability (Bortezomib + Luminespib; first compound 0.000632 µM) | relative viability (Bortezomib + Luminespib; first compound 0.002 µM) | relative viability (Bortezomib + Luminespib; first compound 0.006325 µM) | relative viability (Bortezomib + Luminespib; first compound 0.02 µM) | relative viability (Bortezomib + Tozasertib; first compound 0.0002 µM) | relative viability (Bortezomib + Tozasertib; first compound 0.000632 µM) | relative viability (Bortezomib + Tozasertib; first compound 0.002 µM) | relative viability (Bortezomib + Tozasertib; first compound 0.006325 µM) | relative viability (Bortezomib + Tozasertib; first compound 0.02 µM) | relative viability ([1]; first compound 0.08 µM) | relative viability ([1]; first compound 0.253 µM) | relative viability ([1]; first compound 0.8 µM) | relative viability ([1]; first compound 2.53 µM) | relative viability ([1]; first compound 8 µM) | relative viability (Obatoclax + OSI-027; first compound 0.01 µM) | relative viability (Obatoclax + OSI-027; first compound 0.03162 µM) | relative viability (Obatoclax + OSI-027; first compound 0.1 µM) | relative viability (Obatoclax + OSI-027; first compound 0.3162 µM) | relative viability (Obatoclax + OSI-027; first compound 1 µM)
NCI-H727 | 0.374 | 0.321 | 0.358 | 0.382 | 0.279 | 0.688 | 0.775 | 0.606 | 0.394 | 0.162 | 0.708 | 0.635 | 0.791 | 0.722 | 0.44 | 0.776 | 0.554 | 0.857 | 0.61 | 0.453
NCI-H838 | 0.428 | 0.302 | 0.264 | 0.124 | 0.103 | 0.251 | 0.298 | 0.327 | 0.109 | 0.123 | 0.752 | 0.749 | 0.564 | 0.139 | 0.0822 | 0.498 | 0.367 | 0.46 | 0.385 | 0.284
H3255 | 0.765 | 0.856 | 1.02 | 0.386 | 0.271 | 0.783 | 0.589 | 0.564 | 0.184 | 0.243 | 0.553 | 0.568 | 0.599 | 0.575 | 0.326 | 0.584 | 0.591 | 0.751 | 0.617 | 0.666
EPLC-272H | 0.36 | 0.143 | 0.217 | 0.148 | 0.115 | 0.297 | 0.258 | 0.221 | 0.1 | 0.101 | 0.725 | 0.901 | 0.496 | 0.12 | 0.0643 | 0.277 | 0.279 | 0.333 | 0.247 | 0.203
NCI-H647 | 0.198 | 0.294 | 0.136 | 0.0557 | 0.0467 | 0.297 | 0.19 | 0.203 | 0.0209 | 0.0248 | 0.524 | 0.521 | 0.493 | 0.0425 | 0.0194 | 0.606 | 0.692 | 0.585 | 0.346 | 0.184
SW 900 | 0.167 | 0.198 | 0.184 | 0.163 | 0.16 | 0.522 | 0.544 | 0.184 | 0.103 | 0.14 | 0.863 | 0.89 | 0.805 | 0.298 | 0.107 | 0.54 | 0.512 | 0.709 | 0.383 | 0.258
LXF-289 | 0.68 | 0.598 | 0.639 | 0.138 | 0.074 | 0.166 | 0.183 | 0.157 | 0.0616 | 0.046 | 1.05 | 1.04 | 0.87 | 0.411 | 0.055 | 0.78 | 0.77 | 0.68 | 0.765 | 0.691
NCI-H1650 | 0.186 | 0.185 | 0.177 | 0.203 | 0.217 | 0.426 | 0.57 | 0.19 | 0.139 | 0.153 | 0.831 | 0.831 | 0.764 | 0.748 | 0.0952 | 0.677 | 0.552 | 0.644 | 0.386 | 0.225
NCI-H1755 | 0.494 | 0.418 | 0.417 | 0.21 | 0.181 | 0.571 | 0.612 | 0.566 | 0.193 | 0.157 | 0.877 | 0.89 | 0.856 | 0.514 | 0.253 | 0.768 | 0.709 | 0.667 | 0.742 | 0.763
HCC-15 | 0.322 | 0.343 | 0.405 | 0.0965 | 0.0909 | 0.372 | 0.45 | 0.405 | 0.0716 | 0.0808 | 0.748 | 0.611 | 0.718 | 0.298 | 0.113 | 0.745 | 0.641 | 0.446 | 0.662 | 0.447
EMC-BAC-2 | 1.21 | 1.11 | 1.17 | 0.441 | 0.208 | 0.249 | 0.274 | 0.403 | 0.171 | 0.174 | 0.465 | 0.521 | 0.445 | 0.341 | 0.197 | 0.413 | 0.382 | 0.297 | 0.332 | 0.299
NCI-H1734 | 0.181 | 0.186 | 0.178 | 0.129 | 0.101 | 0.263 | 0.295 | 0.276 | 0.133 | 0.093 | 0.562 | 0.645 | 0.554 | 0.408 | 0.118 | 0.648 | 0.612 | 0.569 | 0.465 | 0.254
NCI-H1395 | 0.864 | 0.761 | 0.445 | 0.334 | 0.263 | 0.793 | 0.692 | 0.576 | 0.288 | 0.274 | 0.472 | 0.462 | 0.445 | 0.355 | 0.278 | 0.659 | 0.539 | 0.473 | 0.557 | 0.465
HOP-62 | 0.921 | 0.907 | 0.67 | 0.288 | 0.0887 | 0.354 | 0.391 | 0.292 | 0.0719 | 0.0538 | 0.366 | 0.521 | 0.436 | 0.395 | 0.194 | 0.858 | 0.848 | 0.754 | 0.819 | 0.583
LK-2 | 0.182 | 0.186 | 0.238 | 0.182 | 0.172 | 0.182 | 0.191 | 0.173 | 0.157 | 0.161 | 0.699 | 0.772 | 0.684 | 0.29 | 0.0845 | 0.261 | 0.214 | 0.225 | 0.256 | 0.192
